Experimental data from ChEMBL document CHEMBL1201862, “PubChem BioAssay data set” (2004).
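How tested: cells in 96-well plates exposed to compound for 48 hours at five concentrations. Here, GI50 denotes the concentration required for 50% inhibition of growth.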 Active and inactive are the calls of the source. Cut-off read from the data, not from the text of the source: active = GI50 up to about 1.1 µM and inactive = higher.

Experiments:
Assay in all cases: NCI tumour cell line growth inhibition, 48 h
ACHN = test system: ACHN
BT-549 = test system: BT-549
CCRF-CEM = test system: CCRF-CEM
HCT-116 = test system: HCT-116
HOP-92 = test system: HOP-92
K562 = test system: K562
LOX IMVI = test system: LOX IMVI
MDA-MB-231 = test system: MDA-MB-231
MOLT-4 = test system: MOLT-4
Malme-3M = test system: Malme-3M
OVCAR-4 = test system: OVCAR-4
OVCAR-5 = test system: OVCAR-5
SF-268 = test system: SF-268
SF-295 = test system: SF-295
SK-MEL-2 = test system: SK-MEL-2
SNB-19 = test system: SNB-19
SR = test system: SR
TK-10 = test system: TK-10
U-251 = test system: U-251
CAKI-1 = test system: CAKI-1

Measured: GI50

CC1(C)OC2[C@@H](CO[C@@]3([C@H]4OC(C)(C)O[C@@H]4CO)OC(C)(C)O[C@@H]23)O1 (some centres not stated)
inactive: ACHN > 100 µM | BT-549 > 100 µM | CCRF-CEM > 100 µM | HCT-116 > 100 µM | HOP-92 > 100 µM | K562 > 100 µM | LOX IMVI > 100 µM | MDA-MB-231 > 100 µM | MOLT-4 > 100 µM | Malme-3M > 100 µM | OVCAR-4 > 100 µM | OVCAR-5 > 100 µM | SF-268 > 100 µM | SF-295 > 100 µM | SK-MEL-2 > 100 µM | SNB-19 > 100 µM | SR > 100 µM | TK-10 > 100 µM | U-251 > 100 µM

CC(C)(CO)CNc1cc(=O)[nH]c(N)n1
inactive: ACHN > 100 µM | BT-549 > 100 µM | CAKI-1 > 100 µM | CCRF-CEM > 100 µM | HCT-116 > 100 µM | HOP-92 > 100 µM | K562 > 100 µM | LOX IMVI > 100 µM | MDA-MB-231 > 100 µM | MOLT-4 > 100 µM | Malme-3M > 100 µM | OVCAR-4 > 100 µM | OVCAR-5 > 100 µM | SF-268 > 100 µM | SF-295 > 100 µM | SK-MEL-2 > 100 µM | SNB-19 > 100 µM | SR > 100 µM | U-251 > 100 µM

CC(=O)C(=[N+]=[N-])C(=O)N1CCOC1=O
inactive: ACHN > 10 µM | BT-549 > 10 µM | CAKI-1 > 10 µM | CCRF-CEM > 10 µM | HCT-116 > 10 µM | K562 > 10 µM | LOX IMVI > 10 µM | MDA-MB-231 > 10 µM | MOLT-4 > 10 µM | Malme-3M > 10 µM | OVCAR-4 > 10 µM | OVCAR-5 > 10 µM | SF-268 > 10 µM | SF-295 > 10 µM | SK-MEL-2 > 10 µM | SNB-19 > 10 µM | SR > 10 µM | TK-10 > 10 µM | U-251 > 10 µM

CC(=O)Nc1ncc2c(n1)-c1ccccc1OC2c1ccccc1 (configuration not stated)
inactive: ACHN 11 µM | BT-549 27.7 µM | CAKI-1 26.1 µM | CCRF-CEM > 100 µM | HCT-116 80.9 µM | HOP-92 14.8 µM | LOX IMVI > 100 µM | MDA-MB-231 21.7 µM | MOLT-4 > 100 µM | OVCAR-4 18.5 µM | OVCAR-5 > 100 µM | SF-268 15.4 µM | SF-295 32.2 µM | SK-MEL-2 71.8 µM | SNB-19 20.8 µM | SR > 100 µM | TK-10 28.7 µM | U-251 33.1 µM

O=c1[nH]c(=O)n(CCOCP(=O)(O)O)nc1Br
inactive: ACHN > 100 µM | BT-549 > 100 µM | CAKI-1 > 100 µM | CCRF-CEM > 100 µM | HOP-92 > 100 µM | LOX IMVI > 100 µM | MDA-MB-231 > 100 µM | MOLT-4 > 100 µM | Malme-3M > 100 µM | OVCAR-5 > 100 µM | SF-268 > 100 µM | SK-MEL-2 > 100 µM | SNB-19 > 100 µM | SR > 100 µM | TK-10 > 100 µM | U-251 > 100 µM

Cc1ccc(S(=O)(=O)NCCN(CCNS(=O)(=O)c2ccc(C)cc2)S(=O)(=O)c2ccc(C)cc2)cc1
inactive: ACHN 60 µM | BT-549 > 100 µM | CAKI-1 > 100 µM | CCRF-CEM > 100 µM | HCT-116 > 100 µM | K562 > 100 µM | LOX IMVI 40.1 µM | MDA-MB-231 > 100 µM | MOLT-4 > 100 µM | Malme-3M 15.4 µM | OVCAR-4 6.53 µM | OVCAR-5 > 100 µM | SF-268 47.4 µM | SF-295 > 100 µM | SK-MEL-2 > 100 µM | SNB-19 46.7 µM | SR > 100 µM | TK-10 41.4 µM | U-251 28.9 µM

COc1nc(=O)n(C2CC(N=[N+]=[N-])C(CO)O2)cc1C (configuration not stated)
inactive: ACHN > 100 µM | BT-549 > 100 µM | CCRF-CEM > 100 µM | HCT-116 > 100 µM | HOP-92 > 100 µM | K562 > 100 µM | LOX IMVI > 100 µM | MDA-MB-231 > 100 µM | MOLT-4 > 100 µM | Malme-3M > 100 µM | OVCAR-4 > 100 µM | OVCAR-5 > 100 µM | SF-268 > 100 µM | SF-295 > 100 µM | SK-MEL-2 > 100 µM | SNB-19 > 100 µM | SR > 100 µM | TK-10 > 100 µM | U-251 > 100 µM

COC(=O)C(O)P(=O)(OC)OC (configuration not stated)
inactive: ACHN > 100 µM | BT-549 > 100 µM | CAKI-1 > 100 µM | HCT-116 > 100 µM | HOP-92 > 100 µM | K562 > 100 µM | LOX IMVI > 100 µM | MDA-MB-231 > 100 µM | MOLT-4 > 100 µM | Malme-3M > 100 µM | OVCAR-4 > 100 µM | OVCAR-5 > 100 µM | SF-268 > 100 µM | SF-295 > 100 µM | SK-MEL-2 > 100 µM | SNB-19 > 100 µM | SR > 100 µM | U-251 > 100 µM
